Earlier results, collected in patent publication US20060216365A1, “Aromatherapeutic environmental system” (priority 2000, published 2006).

Assays:
[1] = system: monoamine oxidase; settings: literature (Truitt 1967)
[2] = mice, literature (Hikino et al 1980)
[3] = mice, literature (Hikino et al 1980); remark: listed apart in the source

Row | Molecule | monoamine oxidase inhibiting activity [1] | prolongation of hexobarbital-induced sleep / enhancement of hexobarbital anesthesis [2] | inhibition of stress-induced ulcer formation [3]
1 | C=CCc1cc(OC)c2c(c1)OCO2 [myristicin] | mild degree |  | 
2 | Kessyl glycol 8-acetate |  | active principles | 
3 | CC(=O)O[C@H]1C[C@@H]2C[C@H]3[C@@H]([C@H](OC(C)=O)C[C@H]3C)[C@]1(C)OC2(C)C [Kessyl glycol diacetate] |  | active principles | no inhibitory action
4 | Kessyl glycol 2-acetate |  | active principles | 
